For experiment [1], the target named is Human intrinsic factor (Human IF) (Homo sapiens, UniProt P27352). The experiment can be described thus: Radioisotope dilution (RID) radiobinding assay for vitamin B12, Human IF binder. Format: binding. To be noted: 500 pg added to human serum in the dark, 15 min incubation, standard extraction. The method, then:
(§1) Each of the RID assays referred to herein utilized the components referred to above. That is, components A, B, C, etc. or the buffer, albumin, and salt, respectively, etc. were added in the order, from left to right, shown in Table 1.
(§2) After the addition of ^57 Co-B12 the components are mixed thoroughly to mix both the naturally occurring B12 and the radioisotope B12 to make them compete and equally available to react with the binder. After the addition of the binder, H, the components were again mixed thoroughly, and then incubated for 45 minutes at about 37° C. Charcoal was then added to the incubated mixture and the components again mixed thoroughly and incubated for another 5 minutes at room temperature. This was followed by centrifuging at 2000×g at 4° C. for 30 minutes. Then 1000 ul of the resulting supernatant liquid is pipetetted from the sample and a determination of the amount of ^57 Co-B12 present is made. The amount of ^57 Co-B12 is indicative of the amount of natural B12 in the tested sample, with lesser amounts of ^57 Co-B12 being indicative of greater amounts of natural vitamin B12 in the sample.
(§3) (1) The values in tubes 3 and 4, the "blank" tubes without binder are averaged and subtracted from all other tubes starting with tube 5.
(§4) (2) The background radiation is subtracted from tubes 1 and 2 and these values are averaged.
(§5) (3) Tubes 5 and 6 are averaged. This value should be at least 15% below the average value for tubes 1 and 2 to insure that all of the binder is saturated in the presence of (^57 Co) B12 alone.
(§6) (4) Values for each tube beginning with tube 7 are divided by the average of tubes 5 and 6 to give values for "% trace binding."
(§7) (5) Percent trace binding for tubes 7-14 are used to obtain a standard curve. We plot % trace binding on the ordinate of logit-log paper versus pg vitamin B12 on the log scale.
(§8) (6) The amount of vitamin B12 in unknown samples is determined by interpolation from the standard curve or data of % trace binding versus pg vitamin B12. […]

The target in experiment [2] is T1, Human R protein (Human R) (Homo sapiens, UniProt P20061).
T1 construct: from tissue; host or cells: human saliva
T1 sequence (P20061 24-433): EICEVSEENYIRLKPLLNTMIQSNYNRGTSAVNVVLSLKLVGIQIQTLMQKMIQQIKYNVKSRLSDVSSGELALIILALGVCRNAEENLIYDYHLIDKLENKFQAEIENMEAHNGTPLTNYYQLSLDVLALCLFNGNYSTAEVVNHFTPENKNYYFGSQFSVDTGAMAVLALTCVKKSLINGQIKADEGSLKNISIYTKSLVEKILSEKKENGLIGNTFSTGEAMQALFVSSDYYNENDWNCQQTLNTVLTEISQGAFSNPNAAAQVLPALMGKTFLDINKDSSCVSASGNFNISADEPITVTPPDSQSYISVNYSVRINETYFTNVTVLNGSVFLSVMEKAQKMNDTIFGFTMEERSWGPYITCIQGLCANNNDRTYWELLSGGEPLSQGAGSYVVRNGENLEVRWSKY
The experiment can be described thus: Radioisotope dilution (RID) radiobinding assay for vitamin B12, Human R binder. To be noted: 500 pg added to human serum in the dark, 15 min incubation, standard extraction. The experiment is classed as binding. On the procedure: as §1, §2, §3, §4, §5, §6, §7, §8

Consider three molecules from patent US4351822A, “Quantitative testing for vitamin B12” (University Patents, Inc., priority 1979, dated 1982).

Chain of Human intrinsic factor (Human IF) (P27352 19-417): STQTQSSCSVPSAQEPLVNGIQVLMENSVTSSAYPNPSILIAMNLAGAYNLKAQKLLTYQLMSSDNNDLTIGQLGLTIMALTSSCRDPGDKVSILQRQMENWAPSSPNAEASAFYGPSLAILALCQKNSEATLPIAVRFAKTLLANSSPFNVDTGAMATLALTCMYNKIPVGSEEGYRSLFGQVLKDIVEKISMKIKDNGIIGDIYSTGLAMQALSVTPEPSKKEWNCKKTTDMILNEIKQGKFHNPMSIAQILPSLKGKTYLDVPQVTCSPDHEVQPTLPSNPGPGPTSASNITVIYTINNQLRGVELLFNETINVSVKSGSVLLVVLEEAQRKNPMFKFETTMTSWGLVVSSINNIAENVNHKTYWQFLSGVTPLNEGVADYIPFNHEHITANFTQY

For `C/C1=C2/[N-][C@H]([C@H](CC(N)=O)[C@@]2(C)CCC(=O)NC[C@@H](C)OP(=O)([O-])O[C@H]2[C@@H](O)[C@@H](n3cnc4cc(C)c(C)cc43)O[C@@H]2CO)[C@]2(C)N=C(/C(C)=C3N=C(/C=C4N=C1[C@@H](CCC(N)=O)C\4(C)C)[C@@H](CCC(N)=O)[C@]\3(C)CC(N)=O)[C@@H](CCC(N)=O)[C@]2(C)CC(N)=O.[Co+3].[OH-]` [OH-B12], the “increase in the apparent amount of vitamin B12, RID with human IF protein” value (“increase … with human IF protein” for short) in experiment [1] is recorded as “about 500 pg”. Also, the “increase in the apparent amount of vitamin B12, RID with human R protein” value (shortened to “increase … with human R protein”) in experiment [2] is “about 500 pg”.
For `C/C1=C2/[N-]C([C@H](CC(N)=O)[C@@]2(C)CCC(=O)NC[C@@H](C)OP(=O)([O-])O[C@H]2[C@@H](O)[C@@H](n3cnc4cc(C)c(C)cc43)O[C@@H]2CO)[C@]2(C)N=C(/C(C)=C3N=C(/C=C4N=C1[C@@H](CCC(N)=O)C\4(C)C)[C@@H](CCC(N)=O)[C@]\3(C)CC(N)=O)[C@@H](CCC(N)=O)[C@]2(C)CC(N)=O.[CH2-][C@H]1O[C@@H](n2cnc3c(N)ncnc32)[C@@H](O)[C@@H]1O.[Co+3]` [adenosyl-B12], in experiment [1], the “increase … with human IF protein” value was “about 500 pg”. Further, the “increase … with human R protein” value in experiment [2] is recorded as “about 500 pg”.
With CH3 -B12, the “increase … with human IF protein” value in experiment [1] is “about 500 pg”. The “increase … with human R protein” value in experiment [2] was “about 500 pg”.
